Counter-ions that a name gives are not always drawn. Like-named read-outs stand apart in the source and are kept apart here.
Target: canine TRPM8 (Canis lupus familiaris, UniProt Q1A7N1)
Assay: In vitro canine TRPM8 functional assay (Ca2+-sensitive fluorescent dye, icilin activation)
Assay type: cell-based
Method: The functional activity of representative compounds of the formula (I) of the present invention was quantified by measuring changes in intracellular calcium concentration using a Ca^2+-sensitive fluorescent dye. The changes in fluorescent signal were monitored by a fluorescence plate reader, either a FLIPR™ (Molecular Devices) or FDSS (Hamamatsu).
HEK293 cells stably expressing canine TRPM8 were routinely grown as monolayers in Dulbecco's minimum essential medium supplemented with 10% FBS, 2 mM L-glutamine, 100 units/mL penicillin, 100 ug/mL streptomycin and 400 μg/mL G418. Cells were maintained in 5% CO2 at 37° C. At 24 hr prior to assay, cells were seeded in black wall, clear-base poly-D-lysine coated 384-well plates (BD Biosciences, NJ, USA) at a density of 5,000 cells per well in culture medium and grown overnight in 5% CO2 at 37° C. On assay day, growth media was removed, and cells were loaded with Calcium 3 Dye (Molecular Devices) for 35 min at 37° C., under 5% CO2 and then incubated for 25 min at room temperature and atmosphere. Subsequently, cells were tested for agonist-induced increases in intracellular Ca^2+ levels using FLIPR™ or FDSS. Cells were treated with compounds of the formula (I) at varying concentrations and intracellular Ca^2+ was measured for 5 min prior to the addition of icilin to each well to achieve a final concentration that produces an approximately 80% maximal response.
Maximal fluorescence intensity (FI) achieved upon addition of icilin was exported from the FLIPR™ or FDSS software and further analyzed using GraphPad Prism 3.02 (Graph Pad Software Inc., CA, U.S.A.). Basal FI was subtracted prior to normalizing data to percent of maximal response. Curves were generated using the average of quadruplicate wells for each data point using nonlinear regression of either sigmoidal dose response or sigmoidal dose response (variable slope). Finally, the EC50 and IC50 values were calculated with the best-fit curve determined by GraphPad Prism

[1] = 0.2 μM compound, HEK293 cells stably expressing canine TRPM8, icilin-induced Ca2+ response
[2] = HEK293 cells stably expressing canine TRPM8, icilin-induced Ca2+ response, eight-point concentration-response
[3] = HEK293, 0.2 μM compound, HEK293 cells stably expressing canine TRPM8, icilin-induced Ca2+ response
[4] = 0.2 μM compound, HEK293 cells stably expressing canine TRPM8, icilin-induced Ca2+ response, hydrochloride

canine TRPM8, sequence (Q1A7N1 1-1104): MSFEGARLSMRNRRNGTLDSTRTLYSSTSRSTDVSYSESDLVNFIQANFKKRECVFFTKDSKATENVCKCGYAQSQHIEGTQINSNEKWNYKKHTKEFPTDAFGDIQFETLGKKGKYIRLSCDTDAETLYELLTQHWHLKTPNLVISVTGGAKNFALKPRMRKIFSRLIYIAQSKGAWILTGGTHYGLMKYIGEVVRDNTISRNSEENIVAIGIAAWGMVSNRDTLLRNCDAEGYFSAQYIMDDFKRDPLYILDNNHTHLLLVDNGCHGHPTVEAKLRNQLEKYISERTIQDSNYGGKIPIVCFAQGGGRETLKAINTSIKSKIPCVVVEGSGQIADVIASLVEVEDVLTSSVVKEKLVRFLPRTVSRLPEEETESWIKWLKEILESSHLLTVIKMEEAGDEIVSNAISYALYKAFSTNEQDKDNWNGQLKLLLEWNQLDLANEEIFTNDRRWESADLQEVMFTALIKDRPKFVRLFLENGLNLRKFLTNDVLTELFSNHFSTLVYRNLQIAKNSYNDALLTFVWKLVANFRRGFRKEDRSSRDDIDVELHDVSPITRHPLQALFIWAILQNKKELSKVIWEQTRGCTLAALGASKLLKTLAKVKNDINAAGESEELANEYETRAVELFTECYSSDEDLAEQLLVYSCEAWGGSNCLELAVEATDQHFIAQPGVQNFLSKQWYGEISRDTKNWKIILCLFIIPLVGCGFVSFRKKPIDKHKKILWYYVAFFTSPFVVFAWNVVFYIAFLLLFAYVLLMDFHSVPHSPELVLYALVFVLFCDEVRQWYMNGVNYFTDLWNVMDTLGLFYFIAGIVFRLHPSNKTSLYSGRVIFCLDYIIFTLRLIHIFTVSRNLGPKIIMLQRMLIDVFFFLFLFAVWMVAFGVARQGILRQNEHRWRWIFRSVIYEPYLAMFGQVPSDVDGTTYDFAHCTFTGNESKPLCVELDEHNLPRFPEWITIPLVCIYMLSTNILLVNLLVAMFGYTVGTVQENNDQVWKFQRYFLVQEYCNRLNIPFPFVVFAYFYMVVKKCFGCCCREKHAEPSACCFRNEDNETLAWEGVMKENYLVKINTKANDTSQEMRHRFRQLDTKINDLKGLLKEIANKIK

Structure (SMILES) | inhibition at 0.2 µM [1] | IC50 [2] | other results
Cn1nc(C(C)(C)C)c(Cl)c1-c1nc2nc(-c3ccccc3C(F)(F)F)ccc2[nH]1 [Compound 32, 2-(5-tert-Butyl-4-chloro-2-methyl-2H-pyrazol-3-yl)-5-(2-trifluoromethyl-phenyl)-1H-imidazo[4,5-b]pyridine hydrochloride] | 100% | 7.6 nM | –
Cn1nc(C(C)(C)C)c(Cl)c1-c1nc2nc(-c3ccccc3F)ccc2[nH]1 [Compound 33, 2-(5-tert-Butyl-4-chloro-2-methyl-2H-pyrazol-3-yl)-5-(2-fluoro-phenyl)-1H-imidazo[4,5-b]pyridine hydrochloride] | 98% | 40 nM | –
Cn1nc(C(C)(C)C)cc1-c1nc2nc(-c3ccccc3C(F)(F)F)ccc2[nH]1 [Compound 34, 2-(5-tert-Butyl-2-methyl-2H-pyrazol-3-yl)-5-(2-trifluoromethyl-phenyl)-1H-imidazo[4,5-b]pyridine] | 89% | 77 nM | –
Cc1nc(-c2ccccc2C(F)(F)F)nc2nc(-c3cc(C(C)(C)C)nn3C)[nH]c12 [Compound 35, 8-(5-tert-Butyl-2-methyl-2H-pyrazol-3-yl)-6-methyl-2-(2-trifluoromethyl-phenyl)-7H-purine trifluoroacetic acid salt] | 67% | – | –
Cn1nc(C(C)(C)C)cc1-c1nc2nc(-c3ccccc3F)ccc2[nH]1 [Compound 36, 2-(5-tert-Butyl-2-methyl-2H-pyrazol-3-yl)-5-(2-fluoro-phenyl)-1H-imidazo[4,5-b]pyridine] | 26% | – | –
Cn1nc(C(C)(C)C)cc1-c1nc2cc(-c3ccccc3OC(F)(F)F)ncc2[nH]1 [Compound 39, 2-(5-tert-Butyl-2-methyl-2H-pyrazol-3-yl)-6-(2-trifluoromethoxy-phenyl)-3H-imidazo[4,5-c]pyridine hydrochloride] | – | 75 nM | inhibition at 0.2 µM [3]: 69%
Cl.Cn1nc(C(C)(C)C)cc1-c1nc2cc(-c3ccccc3C(F)(F)F)ncc2[nH]1 [Compound 40, 2-(5-tert-Butyl-2-methyl-2H-pyrazol-3-yl)-6-(2-trifluoromethyl-phenyl)-3H-imidazo[4,5c]pyridine hydrochloride] | – | – | % Inh @ 0.2 μM: 86%; IC50: 59 nM
Cn1nc(C(C)(C)C)cc1-c1nc2cc(-c3ccccc3Cl)ncc2[nH]1 [Compound 41, 2-(5-tert-Butyl-2-methyl-2H-pyrazol-3-yl)-6-(2-chloro-phenyl)-3H-imidazo[4,5-c]pyridine hydrochloride] | 94% | 51 nM | –
Cn1nc(C(C)(C)C)cc1-c1nc2cc(-c3ccccc3F)ncc2[nH]1 [Compound 42, 2-(5-tert-Butyl-2-methyl-2H-pyrazol-3-yl)-6-(2-fluoro-phenyl)-3H-imidazo[4,5-c]pyridine hydrochloride] | 75% | 59 nM | –
Cl.Cn1nc(C(C)(C)C)c(Cl)c1-c1nc2cc(-c3ccccc3F)ncc2[nH]1 [Compound 43, 2-(5-tert-Butyl-4-chloro-2-methyl-2H-pyrazol-3-yl)-6-(2-fluoro-phenyl)-3H-imidazo[4,5-c]pyridine hydrochloride] | – | 22 nM | % Inh @ 0.2 μM [4]: 100%
Cn1nc(C(C)(C)C)c(C#N)c1-c1nc2cc(-c3ccccc3F)ncc2[nH]1 [Compound 44, 3-tert-Butyl-5-[6-(2-fluoro-phenyl)-3H-imidazo[4,5-c]pyridin-2-yl]-1-methyl-1H-pyrazole-4-carbonitrile hydrochloride] | 98% | 37 nM | –
Cn1nc(C(C)(C)C)c(C#N)c1-c1nc2cc(-c3ccccc3C(F)(F)F)ncc2[nH]1 [Compound 45, 3-tert-Butyl-1-methyl-5-[6-(2-trifluoromethyl-phenyl)-3H-imidazo[4,5-c]pyridin-2-yl]1H-pyrazole-4-carbonitrile hydrochloride] | 98% | 27 nM | –
Cn1nc(C(C)(C)C)c(Cl)c1-c1nc2cc(-c3ccccc3C(F)(F)F)ncc2[nH]1 [Compound 46, 2-(5-tert-Butyl-4-chloro-2-methyl-2H-pyrazol-3-yl)-6-(2-trifluoromethyl-phenyl)-3H-imidazo[4,5-c]pyridine hydrochloride] | 99% | 19 nM | –
Cn1nc(C(C)(C)C)c(C#N)c1-c1nc2cc(-c3ccccc3)ncc2[nH]1 [Compound 47, 3-tert-Butyl-1-methyl-5-(6-phenyl-3H-imidazo[4,5-c]pyridin-2-yl)-1H-pyrazole-4-carbonitrile hydrochloride] | 56% | – | –
Cl.Cn1nc(C(C)(C)C)c(Cl)c1-c1nc2cc(-c3ccccc3F)ncc2[nH]1 [Compound 48, 2-(5-tert-Butyl-4-chloro-2-methyl-2H-pyrazol-3-yl)-6-(2-fluoro-phenyl)-3H-imidazo[4,5-c]pyridine hydrochloride] | – | – | % Inh @ 0.2 μM [4]: 59%
Cn1nc(C(C)(C)C)c(Cl)c1-c1nc2cc(-c3ccccc3C(F)(F)F)nc(OCCN3CCOCC3)c2[nH]1 [Compound 49, 2-(5-tert-Butyl-4-chloro-2-methyl-2H-pyrazol-3-yl)-4-(2-morpholin-4-yl-ethoxy)-6-(2-trifluoromethyl-phenyl)-3H-imidazo[4,5-c]pyridine] | 100% | 6.4 nM | –
CN1CCN(CCOc2nc(-c3ccccc3C(F)(F)F)cc3nc(-c4c(Cl)c(C(C)(C)C)nn4C)[nH]c23)CC1 [Compound 50, 2-(5-tert-Butyl-4-chloro-2-methyl-2H-pyrazol-3-yl)-4-[2-(4-methyl-piperazin-1-yl)-ethoxy]-6-(2-trifluoromethyl-phenyl)-3H-imidazo[4,5-c]pyridine] | 91% | 56 nM | –
Cn1nc(C(C)(C)C)c(Cl)c1-c1nc2cc(-c3ccccc3Cl)nc(OCCN3CCCC3)c2[nH]1 [Compound 51, 2-(5-tert-Butyl-4-chloro-2-methyl-2H-pyrazol-3-yl)-6-(2-chloro-phenyl)-4-(2-pyrrolidin-1-yl-ethoxy)-3H-imidazo[4,5-c]pyridine] | 88% | 72 nM | –
Cn1nc(C(C)(C)C)c(Cl)c1-c1nc2cc(-c3ccccc3C(F)(F)F)nc(OCCN3CCCC3)c2[nH]1 [Compound 52, 2-(5-tert-Butyl-4-chloro-2-methyl-2H-pyrazol-3-yl)-4-(2-pyrrolidin-1-yl-ethoxy)-6-(2-trifluoromethyl-phenyl)-3H-imidazo[4,5-c]pyridine] | – | 79 nM | inhibition at 0.2 µM [3]: 80%
CN(C)CCOc1nc(-c2ccccc2C(F)(F)F)cc2nc(-c3c(Cl)c(C(C)(C)C)nn3C)[nH]c12 [Compound 53, {2-[2-(5-tert-Butyl-4-chloro-2-methyl-2H-pyrazol-3-yl)-6-(2-trifluoromethyl-phenyl)-3H-imidazo[4,5-c]pyridin-4-yloxy]-ethyl}-dimethyl-amine] | 99% | 27 nM | –
Cn1nc(C(C)(C)C)c(Cl)c1-c1nc2cc(-c3ccccc3Cl)nc(OCCN3CCOCC3)c2[nH]1 [Compound 54, 2-(5-tert-Butyl-4-chloro-2-methyl-2H-pyrazol-3-yl)-6-(2-chloro-phenyl)-4-(2-morpholin-4-yl-ethoxy)-3H-imidazo[4,5-c]pyridine] | 99% | 4.2 nM | –

From patent publication US9409915B2, “Substituted aza-bicyclic imidazole derivatives useful as TRPM8 receptor modulators” (Janssen Pharmaceutica NV, priority 2010, dated 2016)
